Data taken from US20200095241A1, “SUBSTITUTED 1,2,4-THIADIAZOLYLPYRROLONES AND 1,2,4-THIADIAZOLYLHYDANTOINS AND SALTS THEREOF AND USE THEREOF AS HERBICIDES” (Bayer CropScience Aktiengesellschaft, priority 2016, published 2020).

Key:
Setaria viridis [1] = test: Post-emergence herbicidal action; type: in vivo; conditions: Setaria viridis, 504 h, about 3 weeks after treatment, read-out: Setaria viridis, herbicidal activity rated visually
Experimental: (§1) Seeds of monocotyledonous and dicotyledonous weeds and crop plants were placed in sandy loam in plastic or wood-fiber pots, covered with soil and cultivated in a greenhouse under controlled growth conditions. 2 to 3 weeks after sowing, the test plants were treated at the one-leaf stage. The compounds of the invention, formulated in the form of wettable powders (WP) or as emulsion concentrates (EC), were then sprayed onto the green parts of the plants as aqueous suspension or emulsion with addition of 0.5% additive at a water application rate of 600 l/ha (converted). After the test plants had been kept in the greenhouse under optimum growth conditions for about 3 weeks, the activity of the preparations was rated visually in comparison to untreated controls. For example, 100% activity=the plants have died, 0% activity=like control plants. Tables A1 to A12 below show the effects of selected compounds of the general formula (I) according to Tables I.1 to I.44 on various harmful plants and an application rate corresponding to 1280 g/ha or 320 g/ha, which were obtained by the experimental procedure mentioned above.

Amaranthus retroflexus [2] = test: Post-emergence herbicidal action; type: in vivo; conditions: about 3 weeks after treatment
Experimental: as §1

Stellaria media [3] = test: Post-emergence herbicidal action; type: in vivo; conditions: Stellaria media, 504 h, about 3 weeks after treatment, read-out: Stellaria media, herbicidal activity rated visually
Experimental: as §1

Matricaria inodora [4] = test: Post-emergence herbicidal action; type: in vivo; conditions: about 3 weeks after treatment
Experimental: as §1

Viola tricolor [5] = test: Post-emergence herbicidal action; type: in vivo; conditions: 504 h, about 3 weeks after treatment, read-out: Viola tricolor, herbicidal activity rated visually
Experimental: as §1

Pharbitis purpurea [6] = test: Post-emergence herbicidal action; type: in vivo; conditions: about 3 weeks after treatment
Experimental: as §1

Abutilon theophrasti [7] = test: Post-emergence herbicidal action; type: in vivo; conditions: Abutilon theophrasti, 504 h, about 3 weeks after treatment, read-out: Abutilon theophrasti, herbicidal activity rated visually
Experimental: as §1

photosystem II (PS II) = target: T1, photosystem II (PS II) (Spinacia oleracea, UniProt P69560); test: Measurement of the PS II activity in thylakoid membranes (DCPIP reduction); type: biochemical; conditions: 100 μM test compound, spinach thylakoid membranes, DCPIP 120 μM, 10 min at 22° C. with exposure to light; read-out: Effect (inhibition of PS II activity)
T1 construct: the chloroplasts were osmotically ruptured and the thylakoid membranes were then obtained by centrifugation; from tissue; host or cells: fresh spinach leaves; thylakoid membranes isolated from chloroplasts
Experimental: Cooled fresh spinach leaves were comminuted and homogenized in 50 mM phosphate buffer, pH 6.8. 10 mM KCl, 0.34 M sucrose (sucrose buffer) (blender, 1 g of plant material/ml). The homogenate was subsequently filtered through 4 layers of Miracloth and the chloroplasts were isolated by centrifugation, i.e. 10 min of centrifugation at 4400×g (4° C.). The sediment was suspended in 25 ml of sucrose buffer and re-centrifuged for 10 min at 4400×g (4° C.). The sediment was then suspended in 40 ml of 50 mM phosphate buffer, pH 6.8, 10 mM KCl, without sucrose. In this step, the chloroplasts were osmotically ruptured and the thylakoid membranes were then obtained by centrifugation (10 min, 4400×g, 4° C.). The membrane sediment was finally suspended in 20 ml of 50 mM phosphate buffer, pH 6.8, 10 mM KCl. Following protein determination and activity determination, the membrane suspension was divided into aliquots and frozen in liquid nitrogen. The aliquots were stored at −80° C. Under these conditions, the photosystem II preparation was storage stable for at least three months. The activity determination of photosystem II (PS II) was then carried out using the following test principle:
The electron transfer from PS II to an artificial electron acceptor, 2,6-dichlorophenolindophenol (DCPIP), was measured with exposure to light. The concentration of the blue oxidized form of DCPIP was determined spectrophotometrically at wavelength λ=595 nm. […] The activity determination was carried out in microtiter plates (96 cavities) in a reaction volume of 200 μl. Here, 155 μl of dilute membrane suspension were initially charged in 50 mM of phosphate buffer, pH 6.8, 10 mM KCl. Depending on the activity of the PS II preparation, the dilution was adjusted such that the measurement of the decrease in absorption (λ=595 nm) was linear for at least 10 min. In each case 5 μl solution of the test compounds of a concentration of 100 μM in DMSO were added to the enzyme suspension; controls contained 5 μl DMSO; the final concentration of DMSO in the reaction batch was thus 2.5% (v/v); this concentration had no adverse effect on the enzymatic activity. On each microtiter plate, a known PS II inhibitor, for example metribuzin, was used as standard, which allowed the quality of the PS II test to be assessed. The reaction was started by addition of 40 μl DCPIP solution (600 μM in distilled water); the final concentration of DCPIP was 120 μM. Measurement of absorption was carried out over a period of 10 min at 22° C. and with exposure to light. Using metribuzin as comparative substance, the results for the efficacy of the compounds of the general formula (I) at 100 μM are stated in the table below using the following classification: ++++ (inhibition≥90%), +++ ([…]≥70%), ++ (70%>inhibition≥50%), + (50%>inhibition≥30%).

Setaria viridis [8] = test: Pre-emergence herbicidal action; type: in vivo; conditions: Setaria viridis, 504 h, after about 3 weeks, read-out: Setaria viridis, herbicidal effect scored visually
Description: (§2) Seeds of monocotyledonous and dicotyledonous weed plants and crop plants were placed in plastic or organic planting pots and covered with soil. The compounds of the invention, formulated in the form of wettable powders (WP) or as emulsion concentrates (EC), were then applied onto the surface of the covering soil as aqueous suspension or emulsion with addition of 0.5% additive at a water application rate of 600 l/ha (converted). After the treatment, the pots were placed in a greenhouse and kept under good growth conditions for the test plants. After about 3 weeks, the effect of the preparations was scored visually in comparison with untreated controls as percentages. For example, 100% activity=the plants have died, 0% activity=like control plants. Tables B1 to B15 below show the effects of selected compounds of the general formula (I) according to Tables I.1 to I.44 on various harmful plants and an application rate corresponding to 1280 g/ha or 320 g/ha, which were obtained by the experimental procedure mentioned above.

Alopecurus myosuroides [9] = test: Pre-emergence herbicidal action; type: in vivo; conditions: after about 3 weeks
Description: as §2

Stellaria media [10] = test: Pre-emergence herbicidal action; type: in vivo; conditions: Stellaria media, 504 h, after about 3 weeks, read-out: Stellaria media, herbicidal effect scored visually
Description: as §2

Hordeum murinum = test: Pre-emergence herbicidal action; type: in vivo; conditions: 320 g/ha, after about 3 weeks
Description: as §2

Matricaria inodora [11] = test: Pre-emergence herbicidal action; type: in vivo; conditions: Tripleurospermum inodorum, 504 h, after about 3 weeks, read-out: Matricaria inodora, herbicidal effect scored visually
Description: as §2

Viola tricolor [12] = test: Pre-emergence herbicidal action; type: in vivo; conditions: Viola tricolor, 504 h, after about 3 weeks, read-out: Viola tricolor, herbicidal effect scored visually
Description: as §2

Polygonum convolvulus [13] = test: Pre-emergence herbicidal action; type: in vivo; conditions: after about 3 weeks
Description: as §2

Alopecurus myosuroides [14] = test: Post-emergence herbicidal action; type: in vivo; conditions: 1280 g/ha, about 3 weeks after treatment
Experimental: as §1

Veronica persica [15] = test: Post-emergence herbicidal action; type: in vivo; conditions: about 3 weeks after treatment
Experimental: as §1

Lolium rigidum = test: Pre-emergence herbicidal action; type: in vivo; conditions: 1280 g/ha, after about 3 weeks
Description: as §2

Pharbitis purpurea [16] = test: Pre-emergence herbicidal action; type: in vivo; conditions: 1280 g/ha, after about 3 weeks
Description: as §2

Abutilon theophrasti [17] = test: Pre-emergence herbicidal action; type: in vivo; conditions: 1280 g/ha, after about 3 weeks
Description: as §2

Polygonum convolvulus [18] = test: Post-emergence herbicidal action; type: in vivo; conditions: 1280 g/ha, about 3 weeks after treatment
Experimental: as §1

Amaranthus retroflexus [19] = test: Pre-emergence herbicidal action; type: in vivo; conditions: after about 3 weeks
Description: as §2

Veronica persica [20] = test: Pre-emergence herbicidal action; type: in vivo; conditions: 1280 g/ha, after about 3 weeks
Description: as §2

Echinochloa crus-galli [21] = test: Post-emergence herbicidal action; type: in vivo; conditions: 1280 g/ha, about 3 weeks after treatment
Experimental: as §1

Echinochloa crus-galli [22] = test: Pre-emergence herbicidal action; type: in vivo; conditions: 1280 g/ha, after about 3 weeks
Description: as §2

Poa annua = test: Pre-emergence herbicidal action; type: in vivo; conditions: 1280 g/ha, after about 3 weeks
Description: as §2

Row | inhibition at 100 µM (stock) (photosystem II (PS II)) [%] | Compound | pest or weed control at 320 g/ha (Matricaria inodora [11]) [%] | Alopecurus myosuroides, herbicidal activity rated visually (Alopecurus myosuroides [14]) [%] | Amaranthus retroflexus, herbicidal activity rated visually (Amaranthus retroflexus [2]; 1280 g/ha) [%] | pest or weed control at 1280 g/ha (Stellaria media [3]) [%] | Matricaria inodora, herbicidal activity rated visually (Matricaria inodora [4]; 1280 g/ha) [%] | pest or weed control at 1280 g/ha (Viola tricolor [5]) [%] | Pharbitis purpurea, herbicidal activity rated visually (Pharbitis purpurea [6]; 1280 g/ha) [%] | pest or weed control at 1280 g/ha (Abutilon theophrasti [7]) [%] | pest or weed control at 1280 g/ha (Setaria viridis [8]) [%] | Lolium rigidum, herbicidal effect scored visually (Lolium rigidum) [%] | pest or weed control at 1280 g/ha (Stellaria media [10]) [%] | pest or weed control at 1280 g/ha (Matricaria inodora [11]) [%] | pest or weed control at 1280 g/ha (Viola tricolor [12]) [%] | Abutilon theophrasti, herbicidal effect scored visually (Abutilon theophrasti [17]) [%] | pest or weed control at 1280 g/ha (Setaria viridis [1]) [%] | further results
1 | > 90 | CC1=C(C)C(O)N(c2nc(C3CC3)ns2)C1=O (stereo not drawn) [I.2-11, 3,4-Dimethyl-5-hydroxy-1-(3-cyclopropyl-1,2,4-thiadiazol-5-yl)-1,5-dihydro-2H-pyrrol-2-one] | 100 |  |  |  |  |  |  |  |  |  |  |  |  |  |  | pest or weed control at 320 g/ha (Setaria viridis [1]; 320 g/ha): 100%; Amaranthus retroflexus, herbicidal activity rated visually (Amaranthus retroflexus [2]; 320 g/ha): 100%; pest or weed control at 320 g/ha (Stellaria media [3]; 320 g/ha): 100%; Matricaria inodora, herbicidal activity rated visually (Matricaria inodora [4]; 320 g/ha): 100%; pest or weed control at 320 g/ha (Viola tricolor [5]; 320 g/ha): 100%; Pharbitis purpurea, herbicidal activity rated visually (Pharbitis purpurea [6]; 320 g/ha): 100%; pest or weed control at 320 g/ha (Abutilon theophrasti [7]; 320 g/ha): 100%; pest or weed control at 320 g/ha (Setaria viridis [8]; 320 g/ha): 100%; Alopecurus myosuroides, herbicidal effect scored visually (Alopecurus myosuroides [9]; 320 g/ha): 90%; pest or weed control at 320 g/ha (Stellaria media [10]; 320 g/ha): 100%; Hordeum murinum, herbicidal effect scored visually (Hordeum murinum): 100%; pest or weed control at 320 g/ha (Viola tricolor [12]; 320 g/ha): 100%; Polygonum convolvulus, herbicidal effect scored visually (Polygonum convolvulus [13]; 320 g/ha): 100%
2 | > 90 | CC1=C(Cl)C(=O)N(c2nc(C3CC3)ns2)C1O (stereo not drawn) [I.3-11, 3-Chloro-4-methyl-5-hydroxy-1-(3-cyclopropyl-1,2,4-thiadiazol-5-yl)-1,5-dihydro-2H-pyrrol-2-one] |  | 80 | 100 | 100 | 90 | 100 | 100 | 100 | 90 | 80 | 100 | 100 | 100 | 80 |  | Veronica persica, herbicidal activity rated visually (Veronica persica [15]; 1280 g/ha): 80%; Alopecurus myosuroides, herbicidal effect scored visually (Alopecurus myosuroides [9]; 1280 g/ha): 100%; Pharbitis purpurea, herbicidal effect scored visually (Pharbitis purpurea [16]): 100%; Polygonum convolvulus, herbicidal effect scored visually (Polygonum convolvulus [13]; 1280 g/ha): 80%
3 | 50 to 70 | CN1CC(O)N(c2ncns2)C1=O (stereo not drawn) [I.13-1, 4-Hydroxy-1-methyl-3-[1,2,4-thiadiazol-5-yl]-imidazolidin-2-one] | 90 | 80 | 100 | 90 |  | 100 | 90 | 100 | 80 |  | 100 |  | 100 |  | 80 | Polygonum convolvulus, herbicidal activity rated visually (Polygonum convolvulus [18]): 100%; Veronica persica, herbicidal activity rated visually (Veronica persica [15]; 320 g/ha): 80%; Amaranthus retroflexus, herbicidal effect scored visually (Amaranthus retroflexus [19]; 320 g/ha): 100%; Veronica persica, herbicidal effect scored visually (Veronica persica [20]): 90%
4 |  | COC(=O)OC1C(C)=C(C)C(=O)N1c1nc(C2CC2)ns1 (stereo not drawn) [I.17-11, 3,4-Dimethyl-5-methoxycarbonyloxy-1-[3-(cyclopropyl)-1,2,4-thiadiazol-5-yl]-1,5-dihydro-2H-pyrrol-2-one] |  |  | 100 | 100 | 100 |  |  | 100 | 100 | 90 | 100 | 100 |  | 100 | 100 | Echinochloa crus-galli, herbicidal activity rated visually (Echinochloa crus-galli [21]): 100%; Echinochloa crus-galli, herbicidal effect scored visually (Echinochloa crus-galli [22]): 100%; Amaranthus retroflexus, herbicidal effect scored visually (Amaranthus retroflexus [19]; 1280 g/ha): 100%; Poa annua, herbicidal effect scored visually (Poa annua): 100%
